According to ChEMBL document CHEMBL1154199, “Design, synthesis and evaluation of novel 5,6-dimethoxy-1-oxo-2,3-dihydro-1H-2-indenyl-3,4-substituted phenyl methanone analogues” (Bioorg Med Chem Lett, 2009):

Molecular target: Acetylcholinesterase (Electrophorus electricus, UniProt O42275)
Experiment: Inhibition of Electrophorus electricus AChE by Ellman's method; call rule not given here

Sequence of Acetylcholinesterase (O42275 whole entry): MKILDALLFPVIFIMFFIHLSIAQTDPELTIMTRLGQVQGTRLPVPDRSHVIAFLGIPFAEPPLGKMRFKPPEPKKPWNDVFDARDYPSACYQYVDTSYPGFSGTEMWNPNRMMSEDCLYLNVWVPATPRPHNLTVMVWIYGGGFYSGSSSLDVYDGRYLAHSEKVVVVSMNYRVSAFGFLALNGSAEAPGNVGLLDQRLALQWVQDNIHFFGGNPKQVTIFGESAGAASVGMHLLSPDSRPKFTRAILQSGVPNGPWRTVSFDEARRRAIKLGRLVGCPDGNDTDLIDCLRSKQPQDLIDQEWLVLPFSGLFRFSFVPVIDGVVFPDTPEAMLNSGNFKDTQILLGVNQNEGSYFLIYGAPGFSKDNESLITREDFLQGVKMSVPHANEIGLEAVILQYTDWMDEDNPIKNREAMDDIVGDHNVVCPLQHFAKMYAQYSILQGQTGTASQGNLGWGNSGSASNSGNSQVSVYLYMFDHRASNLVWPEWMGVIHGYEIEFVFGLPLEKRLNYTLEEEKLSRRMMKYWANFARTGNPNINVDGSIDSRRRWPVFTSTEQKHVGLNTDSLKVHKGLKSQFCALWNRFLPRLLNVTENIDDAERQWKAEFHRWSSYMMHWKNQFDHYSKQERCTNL

Compound	IC50 (read-out: IC50)	IC50
COc1cc2c(cc1OC)C(=O)C(C(=O)c1c(Cl)cccc1Cl)C2 (centres undefined)	102 µM	
COc1cc2c(cc1OC)C(=O)C(C(=O)c1cccc([N+](=O)[O-])c1)C2 (centres undefined)		Not Active
COc1cc2c(cc1OC)C(=O)C(C(=O)c1cccs1)C2 (centres undefined)	8.6 µM	
COc1cc2c(cc1OC)C(=O)C(C(=O)c1ccc(Br)cc1)C2 (centres undefined)	45 µM	
COc1cc2c(cc1OC)C(=O)C(C(=O)c1ccc(C#N)cc1)C2 (centres undefined)	53 µM	
COc1cc2c(cc1OC)C(=O)C(C(=O)c1ccc(N(C)C)cc1)C2 (centres undefined)	29.4 µM	
COc1ccc(C(=O)C2Cc3cc(OC)c(OC)cc3C2=O)cc1 (centres undefined)	6.2 µM	
COc1cc2c(cc1OC)C(=O)C(C(=O)c1ccc(Cl)cc1)C2 (centres undefined)	41.2 µM	
COc1cc2c(cc1OC)C(=O)C(C(=O)c1ccccc1)C2 (centres undefined)	21 µM	
COc1ccc(C(=O)C2Cc3cc(OC)c(OC)cc3C2=O)cc1OC (centres undefined)	4.3 µM	
COc1cc2c(cc1OC)C(=O)C(C(=O)c1cc(OC)c(OC)c(OC)c1)C2 (centres undefined)	2.7 µM	
COc1cc2c(cc1OC)C(=O)C(C(=O)c1ccc(F)cc1)C2 (centres undefined)	42 µM	
COc1cc2c(cc1OC)C(=O)C(C(=O)c1ccccc1Cl)C2 (centres undefined)	64 µM	
COc1cc2c(cc1OC)C(=O)C(C(=O)c1ccco1)C2 (centres undefined)	9.4 µM	
